Molecular target: T1, D(4) dopamine receptor (Homo sapiens, UniProt P21917)
T1 sequence (P21917 whole entry): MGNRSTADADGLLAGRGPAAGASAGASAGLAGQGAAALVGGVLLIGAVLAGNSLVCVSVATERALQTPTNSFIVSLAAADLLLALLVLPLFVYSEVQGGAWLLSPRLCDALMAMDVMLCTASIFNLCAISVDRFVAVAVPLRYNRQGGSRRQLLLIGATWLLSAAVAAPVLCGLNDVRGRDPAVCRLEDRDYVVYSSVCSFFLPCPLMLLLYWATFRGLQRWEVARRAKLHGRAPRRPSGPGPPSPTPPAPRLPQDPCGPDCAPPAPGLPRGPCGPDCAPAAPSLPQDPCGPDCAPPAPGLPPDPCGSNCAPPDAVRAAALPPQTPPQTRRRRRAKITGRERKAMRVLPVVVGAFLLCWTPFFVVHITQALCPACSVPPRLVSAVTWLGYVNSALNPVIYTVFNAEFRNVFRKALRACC
Experiment: Receptor Binding Assay: Determination of binding to D4.4 receptor was performed using [3H]-YM-09151-2 (70-87 Ci/mmol, 0.3 nM), as a radioligand, in the presence of various concentrations of the tested compound. Reactions were carried out in 50 mM TRIS-HCl (pH 7.4) containing 5 mM MgCl2, 5 mM EDTA, 5 mM KCl and 1.5 mM CaCl2, for 60 minutes at 22° C. The reaction was terminated by rapid vacuum filtration onto glass fiber filters.

- IC50: 10 µM
Compound: O=c1[nH]c(CN2CCN(c3ccccc3O)CC2)nc2ccccc12
